Reference: patent publication US20250115598A1 (Anaxis Pharma Pty Ltd, priority 2021, published 2025)

Tests used:
endogenous MLKL in MDF = endogenous MLKL in MDF (Mus musculus (Mouse), UniProt Q9D2Y4); assay: Degradation assay: endogenous MLKL in MDF (western blot); settings: MDF cells, 24 h incubation with compound, MLKL adjusted for loading with GAPDH, normalized to DMSO only control, read-out: Degradation of endogenous MLKL in MDF (DC50 cell-based assay)
Outline: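 Western blot band intensity of MLKL, adjusted to GAPDH loading and normalized to DMSO-only wells, gave percent degradation. Compound exposure lasted 24 h at final concentrations of 10–0.016 μM in 1:5 steps, in mouse dermal fibroblasts or human U937 cells.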

human RIPK1 = human RIPK1 (Homo sapiens (Human), UniProt Q13546); assay: KINOMEscan binding assay, human RIPK1; settings: Table 21
Outline: (§1)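 Binding constants were derived by fitting qPCR-quantified bead-retained kinase against compound concentration to the Hill equation, slope set at −1. Compound series were 3-fold over 11 points with 1% DMSO; most top concentrations were 30,000 nM. Kinases were T7-phage-tagged or HEK-293-produced with DNA tags.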

human RIPK3 = human RIPK3 (Homo sapiens (Human), UniProt Q9Y572); assay: KINOMEscan binding assay, human RIPK3; settings: Table 21
Outline: as §1

human RIPK1, sequence (Q13546 whole entry): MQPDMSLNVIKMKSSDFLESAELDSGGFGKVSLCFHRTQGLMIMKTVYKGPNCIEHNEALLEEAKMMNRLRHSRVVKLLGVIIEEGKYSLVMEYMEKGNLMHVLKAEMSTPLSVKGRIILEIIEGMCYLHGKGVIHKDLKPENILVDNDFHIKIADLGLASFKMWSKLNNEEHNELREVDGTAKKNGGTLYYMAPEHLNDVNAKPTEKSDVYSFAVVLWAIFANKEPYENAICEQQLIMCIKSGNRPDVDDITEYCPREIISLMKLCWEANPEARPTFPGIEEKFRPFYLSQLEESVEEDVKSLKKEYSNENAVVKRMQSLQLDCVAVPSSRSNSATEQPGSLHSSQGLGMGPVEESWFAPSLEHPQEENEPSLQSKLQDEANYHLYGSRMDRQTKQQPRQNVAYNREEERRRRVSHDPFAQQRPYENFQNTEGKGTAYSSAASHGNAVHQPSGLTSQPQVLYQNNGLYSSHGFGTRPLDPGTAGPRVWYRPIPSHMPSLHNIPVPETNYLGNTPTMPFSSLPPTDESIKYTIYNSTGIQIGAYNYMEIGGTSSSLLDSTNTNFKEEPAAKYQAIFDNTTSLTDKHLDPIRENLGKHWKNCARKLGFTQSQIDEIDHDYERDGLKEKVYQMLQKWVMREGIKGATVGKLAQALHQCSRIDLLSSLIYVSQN
human RIPK3, sequence (Q9Y572 whole entry): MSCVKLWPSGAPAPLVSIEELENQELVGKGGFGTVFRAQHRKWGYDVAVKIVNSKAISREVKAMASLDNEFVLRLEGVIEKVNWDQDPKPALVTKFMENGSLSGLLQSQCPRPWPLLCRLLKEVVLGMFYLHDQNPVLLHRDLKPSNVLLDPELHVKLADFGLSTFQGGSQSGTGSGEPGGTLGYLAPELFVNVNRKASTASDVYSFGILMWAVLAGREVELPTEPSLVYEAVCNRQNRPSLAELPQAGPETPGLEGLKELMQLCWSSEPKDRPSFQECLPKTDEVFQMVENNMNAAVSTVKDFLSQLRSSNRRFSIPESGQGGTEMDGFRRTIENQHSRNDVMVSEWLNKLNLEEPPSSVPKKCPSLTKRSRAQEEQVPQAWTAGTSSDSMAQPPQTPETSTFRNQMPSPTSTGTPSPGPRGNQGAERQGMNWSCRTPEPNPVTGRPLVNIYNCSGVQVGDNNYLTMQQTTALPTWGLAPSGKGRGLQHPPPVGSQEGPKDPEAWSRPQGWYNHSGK
endogenous MLKL in MDF, sequence (Q9D2Y4 whole entry): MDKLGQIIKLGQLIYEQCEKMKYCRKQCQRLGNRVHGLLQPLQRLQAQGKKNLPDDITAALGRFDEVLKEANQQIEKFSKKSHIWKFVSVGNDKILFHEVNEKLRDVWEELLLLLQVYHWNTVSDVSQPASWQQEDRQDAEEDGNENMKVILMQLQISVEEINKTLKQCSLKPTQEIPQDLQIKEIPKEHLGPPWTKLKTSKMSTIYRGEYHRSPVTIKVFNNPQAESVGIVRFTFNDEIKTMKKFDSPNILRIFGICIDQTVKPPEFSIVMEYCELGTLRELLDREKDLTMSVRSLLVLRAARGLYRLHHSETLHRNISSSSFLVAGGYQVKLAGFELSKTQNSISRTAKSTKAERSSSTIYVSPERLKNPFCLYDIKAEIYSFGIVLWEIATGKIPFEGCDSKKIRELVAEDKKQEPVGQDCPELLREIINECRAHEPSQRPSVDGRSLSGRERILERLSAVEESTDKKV

C[C@H](Oc1cc(-c2nn(C)c3c(-c4cnn(CCCCCCCOc5cccc6c5C(=O)N(C5CCC(=O)NC5=O)C6=O)c4)cnc(N)c23)ccc1NS(=O)(=O)C(F)F)c1ccc(F)cc1 (some centres unmarked) [Compound 1031, N-(4-{4-amino-7-[1-(7-{[2-(2,6-dioxopiperidin-3-yl)-1,3-dioxo-2,3-dihydro-1H-isoindol-4-yl]oxy}heptyl)-1H-pyrazol-4-yl]-1-methyl-1H-pyrazolo[4,3-c]pyridin-3-yl}-2-[(1 S)-1-(4-fluorophenyl)ethoxy]phenyl)-1,1-difluoromethanesulfonamide]
DC50 (endogenous MLKL in MDF): < 1 µM

Nc1ncc(-c2cnn(C3CCOCC3)c2)c2[nH]nc(-c3ccc(NS(=O)(=O)C(F)F)c(OCc4cccc(Cl)c4)c3)c12 [Compound 131]
Kd (human RIPK1): > 10 µM | Kd (human RIPK3): > 10 µM

N-(4-(4-amino-1-methyl-7-(1-(1,2,2-trimethylpiperidin-4-yl)-1H-pyrazol-4-yl)-1H-pyrazolo[4,3-c]pyridin-3-yl)-2-((S)-1-(4-fluorophenyl)ethoxy)phenyl)-1,1-difluoromethanesulfonamide [Compound 113]
Kd (human RIPK1): > 10 µM | Kd (human RIPK3): > 10 µM
